Results: patent US20240165097A1, “PHARMACEUTICAL COMPOSITION FOR THE TREATMENT OF ALZHEIMER'S DISEASE OR DEMENTIA” (Heptares Therapeutics Limited, priority 2021, published 2024)
Where “and” joins values, the source holds several entries; their conditions need not be identical. Identical values can stand only once. Like-named read-outs stand apart in the source and are kept apart here.

System: healthy elderly subjects
[1] = 15 mg HTL0018318 + donepezil vs Placebo
[2] = 15 mg HTL0018318 alone vs 15 mg HTL0018318 donepezil
[3] = 15 mg HTL0018318 alone vs Placebo
[4] = 15 mg and 25 mg, in combination with or without donepezil
[5] = 15 mg in combination with donepezil
[6] = 15 mg in combination with donepezil (5 days)
[7] = 15 mg without donepezil (5 days)
[8] = 25 mg HTL0018318 + donepezil vs Placebo
[9] = 25 mg HTL0018318 alone vs 25 mg HTL0018318 donepezil
[10] = 25 mg HTL0018318 alone vs Placebo
[11] = 25 mg in combination with donepezil
[12] = 25 mg in combination with donepezil (5 days)
[13] = 25 mg without donepezil (5 days)
[14] = 25 mg without donepezil vs in combination with donepezil

Method: The study was run in three cohorts to allow within study modification of the dose of HTL0018318 in the event that an unexpected interaction occurred.
HTL0018318 was administered orally as an aqueous solution in 100 ml. Water was used as placebo. To mask the difference in taste between HTL0018318 and placebo, a peppermint strip (Listerine) was administered one minute before and after the administration of the oral solution.
A subset of AEs was created that have a possible relation to increased cholinergic stimulation, being: hyperhidrosis, salivary hypersecretion, hypertension, tachycardia, bradycardia, nausea, diarrhoea, vomiting, constipation, insomnia, dizziness, muscle spasms, hot flush and cold sweat.
Systolic and diastolic blood pressure and pulse rate, all measured in supine and standing position, safety laboratory, electrocardiogram (ECG), and 24-hour Holter ECG were performed.
Saliva production was assessed by measuring the change in weight of three Salivette® dental rolls put into the oral cavity for 3 minutes. Pulmonary function was measured using the Spirostik (Accuramed), a PC-based open spirometry system.
To this end a mixed model analysis of variance was used with treatment, period, time, treatment by period, period by time, treatment by time and treatment by period by time as fixed factors. Subject, subject by period and subject by time were random factors and the pre-HTL0018318 baseline measurement per period was a covariate. In these analysis models, all means are estimated (least square means, LSM). Statistical analysis was conducted with SAS 9.4 for Windows (SAS Institute Inc., Cary, NC, USA). […] Analyses were performed for 15 mg and 25 mg HTL0018318 dose levels separately.

SMILES: CCOC(=O)N1C2CCC1CC(N1CCC3(CC1)CNC(=O)C3)C2 (stereo not shown) [HTL0018318, ethyl 3-(3-oxo-2,8-diazaspiro[4.5]dec-8-yl)-8-azabicyclo[3.2.1]octane-8-carboxylate]
- FEV1/FVC, contrast estimate [1]: 1.052%
- FEV 1 second, contrast estimate [1]: 0.043 L
- FVC, contrast estimate [1]: 0.03719 L
- LSEQ: Awake following sleep, contrast estimate [1]: 3.50
- LSEQ: Behaviour after wake, contrast estimate [1]: 1.51
- LSEQ: Getting to sleep, contrast estimate [1]: 1.59
- LSEQ: Quality of sleep, contrast estimate [1]: 2.42
- PEF, contrast estimate [1]: 0.339 L/s
- Saliva, contrast estimate [1]: 0.707 g
- VAS Alertness, contrast estimate [1]: −0.70 mm
- VAS Calmness, contrast estimate [1]: −2.37 mm
- VAS Mood, contrast estimate [1]: −0.24 mm
- VAS Nausea, contrast estimate [1]: −0.08 log(mm)
- FEV1/FVC, contrast estimate [2]: −0.886%
- FEV 1 second, contrast estimate [2]: 0.127 L
- FVC, contrast estimate [2]: 0.1702 L
- LSEQ: Awake following sleep, contrast estimate [2]: −1.93
- LSEQ: Behaviour after wake, contrast estimate [2]: −0.85
- LSEQ: Getting to sleep, contrast estimate [2]: −0.79
- LSEQ: Quality of sleep, contrast estimate [2]: −0.26
- PEF, contrast estimate [2]: -0.343 L/s
- Saliva, contrast estimate [2]: -0.554 g
- VAS Alertness, contrast estimate [2]: −0.46 mm
- VAS Calmness, contrast estimate [2]: −0.20 mm
- VAS Mood, contrast estimate [2]: −0.03 mm
- VAS Nausea, contrast estimate [2]: −0.01 log(mm)
- FEV1/FVC, contrast estimate [3]: −0.327%
- FEV 1 second, contrast estimate [3]: 0.153 L
- FVC, contrast estimate [3]: 0.2035 L
- LSEQ: Awake following sleep, contrast estimate [3]: −1.72
- LSEQ: Behaviour after wake, contrast estimate [3]: −1.00
- LSEQ: Getting to sleep, contrast estimate [3]: 0.82
- LSEQ: Quality of sleep, contrast estimate [3]: −5.14
- PEF, contrast estimate [3]: 0.282 L/s
- Saliva, contrast estimate [3]: 0.498 g
- VAS Alertness, contrast estimate [3]: −1.96 mm
- VAS Calmness, contrast estimate [3]: −3.17 mm
- VAS Mood, contrast estimate [3]: −2.93 mm
- VAS Nausea, contrast estimate [3]: −0.06 log(mm)
- number of AEs in gastrointestinal disorders class, viral gastroenteritis AEs excluded (15 mg alone): 1 AE
- supine pulse rate compared with placebo [4]: no significant effects
- supine systolic blood pressure compared with placebo [4]: no significant effects
- cholinergic AEs, percentage of subjects [5]: 13%
- nausea reports, viral gastroenteritis AEs excluded [5]: one subject
- supine pulse rate [5]: 64 bpm
- All AEs, percentage of subjects [6]: 50% ( 4/8 subjects)
- Gastrointestinal disorders, percentage of subjects [6]: 13% (⅛ subjects)
- Neurological disorders, percentage of subjects [6]: 13% (⅛ subjects)
- supine pulse rate, mean difference (15 mg in combination with donepezil vs without donepezil): 3.3 bpm
- cholinergic AEs, percentage of subjects (15 mg without donepezil): 0%
- supine pulse rate (15 mg without donepezil): 67 bpm
- All AEs, percentage of subjects [7]: 43% ( 3/7 subjects)
- Gastrointestinal disorders, percentage of subjects [7]: 14% ( 1/7 subjects)
- Neurological disorders, percentage of subjects [7]: 14% ( 1/7 subjects)
- delta pulse rate (15 mg without donepezil vs in combination with donepezil): no significant changes
- number of AEs in gastrointestinal disorders class, viral gastroenteritis AEs excluded (15 mg+donepezil): 3 AEs
- FEV1/FVC, contrast estimate [8]: −0.399%
- FEV 1 second, contrast estimate [8]: 0.085 L
- FVC, contrast estimate [8]: 0.1784 L
- LSEQ: Awake following sleep, contrast estimate [8]: 0.52
- LSEQ: Behaviour after wake, contrast estimate [8]: −0.80
- LSEQ: Getting to sleep, contrast estimate [8]: −0.74
- LSEQ: Quality of sleep, contrast estimate [8]: −1.37
- PEF, contrast estimate [8]: 0.273 L/s
- Saliva, contrast estimate [8]: 0.910 g
- VAS Alertness, contrast estimate [8]: −1.49 mm
- VAS Calmness, contrast estimate [8]: −1.67 mm
- VAS Mood, contrast estimate [8]: −0.38 mm
- VAS Nausea, contrast estimate [8]: −0.04 log(mm)
- FEV1/FVC, contrast estimate [9]: 2.491%
- FEV 1 second, contrast estimate [9]: 0.008 L
- FVC, contrast estimate [9]: -.11255 L
- LSEQ: Awake following sleep, contrast estimate [9]: 0.93
- LSEQ: Behaviour after wake, contrast estimate [9]: 1.86
- LSEQ: Getting to sleep, contrast estimate [9]: 1.72
- LSEQ: Quality of sleep, contrast estimate [9]: 6.49
- PEF, contrast estimate [9]: 0.047 L/s
- Saliva, contrast estimate [9]: -0.349 g
- VAS Alertness, contrast estimate [9]: 0.66 mm
- VAS Calmness, contrast estimate [9]: −0.07 mm
- VAS Mood, contrast estimate [9]: 0.55 mm
- VAS Nausea, contrast estimate [9]: −0.03 log(mm)
- FEV1/FVC, contrast estimate [10]: 1.600%
- FEV 1 second, contrast estimate [10]: 0.077 L
- FVC, contrast estimate [10]: 0.06192 L
- LSEQ: Awake following sleep, contrast estimate [10]: −1.85
- LSEQ: Behaviour after wake, contrast estimate [10]: −0.60
- LSEQ: Getting to sleep, contrast estimate [10]: 1.01
- LSEQ: Quality of sleep, contrast estimate [10]: −2.18
- PEF, contrast estimate [10]: 0.606 L/s
- Saliva, contrast estimate [10]: 0.906 g
- VAS Alertness, contrast estimate [10]: −1.63 mm
- VAS Calmness, contrast estimate [10]: −2.34 mm
- VAS Mood, contrast estimate [10]: −2.49 mm
- VAS Nausea, contrast estimate [10]: −0.05 log(mm)
- number of AEs in gastrointestinal disorders class, viral gastroenteritis AEs excluded (25 mg alone): 3 AEs
- cholinergic AEs, percentage of subjects [11]: 69%
- delta pulse rate (standing from supine) [11]: 12 bpm and 10 bpm
- supine pulse rate [11]: 64 bpm
- supine systolic blood pressure [11]: 120 mm Hg
- All AEs, percentage of subjects [12]: 88% ( 14/16 subjects)
- Gastrointestinal disorders, percentage of subjects [12]: 25% ( 4/16 subjects)
- Neurological disorders, percentage of subjects [12]: 38% ( 6/16 subjects)
- delta pulse rate, mean difference (25 mg in combination with donepezil vs placebo in combination with donepezil): −3.4 bpm
- supine pulse rate, mean difference (25 mg in combination with donepezil vs without donepezil): 1.5 bpm
- cholinergic AEs, percentage of subjects (25 mg without donepezil): 67%
- delta pulse rate (standing from supine) (25 mg without donepezil): 10 bpm and 12 bpm
- supine pulse rate (25 mg without donepezil): 66 bpm
- supine systolic blood pressure (25 mg without donepezil): 118 mm Hg
- All AEs, percentage of subjects [13]: 92% ( 11/12 subjects)
- Gastrointestinal disorders, percentage of subjects [13]: 17% ( 2/12 subjects)
- Neurological disorders, percentage of subjects [13]: 50% ( 6/12 subjects)
- delta pulse rate, mean difference [14]: −1.6 bpm
- supine systolic blood pressure, mean difference [14]: 1.6 mm Hg
- delta pulse rate, mean difference (25 mg without donepezil vs placebo without donepezil): −3.7 bpm
- number of AEs in gastrointestinal disorders class, viral gastroenteritis AEs excluded (25 mg+donepezil): 4 AEs
- laboratory tests, ECG assessment and 24-hour Holter ECG (15 or 25 mg, with and without donepezil): No clinically significant changes
- standing systolic BP, supine and standing diastolic BP, standing-supine BP, standing pulse rate (HTL0018318 in combination with donepezil vs HTL0018318 alone): no significant changes
- VAS alertness, calmness, mood, and nausea (HTL0018318 in combination with donepezil vs without donepezil): no statistically significant effects
- intensity and seriousness of AEs (all treatments of the study): mild or moderate in intensity and there were no serious adverse events
- tolerability (multiple doses in combination with donepezil): generally well tolerated
